Data on 2 molecules can be found in patent US7537906B2, “Apoptosis inducer and method of screening for a substance inhibiting acylated homoserine lactone” (priority 2003, dated 2009).

The test system of the test is CaCo-2 cells. The test can be described thus: Effects of kinase inhibitors on N-(3-oxododecanoyl)-L-homoserine lactone-dependent apoptosis, viability by Trypan blue staining. The format is cell-based, human. To be noted: then 30 μM N-(3-oxododecanoyl)-L-homoserine lactone, 12 hours. The method, then:
2×10^5 CaCo-2 cells were inoculated per 3.5 cm dish, cultured for 12 hours in the presence of 10% serum, washed twice with PBS (-), and then synchronously cultured in a serum-free medium for 24 hours. Pretreatment with various inhibitors (50 μM PD98059 and 20 μM SB203580) or DMSO was carried out for 30 minutes. Then 30 μM N-(3-oxododecanoyl)-L-homoserine lactone or DMSO was added, the cells were cultured for 12 hours, and then viability was measured by Trypan blue staining.

As for `COc1cccc(-c2cc(=O)c3ccccc3o2)c1N` [PD98059], where the note is “50 μM pretreatment 30 minutes”, the “effect of pretreatment on viability” value is listed as “no effect”.
By viability is commonly meant a read-out of living cells in per cent, often relative to untreated cells. With `C[S+]([O-])c1ccc(-c2nc(-c3ccncc3)c(-c3ccc(F)cc3)[nH]2)cc1` (centres unmarked) [SB203580], the viability at 20 µM (Homo sapiens, 20 μM pretreatment 30 minutes) was 35%.
